SMILES strings stand for the structures.

The text below walks through data of PMC10974743, “Design, Synthesis, and Biological Evaluation of Novel Phenoxy Acetic Acid Derivatives as Selective COX-2 Inhibitors Coupled with Comprehensive Bio-Pharmacological Inquiry, Histopathological Profiling, and Toxicological Scrutiny” (Molecules, 2024).

In one data set the target is T1, ovine COX-1 (Ovis aries, UniProt P05979).
T1 sequence (P05979 25-600): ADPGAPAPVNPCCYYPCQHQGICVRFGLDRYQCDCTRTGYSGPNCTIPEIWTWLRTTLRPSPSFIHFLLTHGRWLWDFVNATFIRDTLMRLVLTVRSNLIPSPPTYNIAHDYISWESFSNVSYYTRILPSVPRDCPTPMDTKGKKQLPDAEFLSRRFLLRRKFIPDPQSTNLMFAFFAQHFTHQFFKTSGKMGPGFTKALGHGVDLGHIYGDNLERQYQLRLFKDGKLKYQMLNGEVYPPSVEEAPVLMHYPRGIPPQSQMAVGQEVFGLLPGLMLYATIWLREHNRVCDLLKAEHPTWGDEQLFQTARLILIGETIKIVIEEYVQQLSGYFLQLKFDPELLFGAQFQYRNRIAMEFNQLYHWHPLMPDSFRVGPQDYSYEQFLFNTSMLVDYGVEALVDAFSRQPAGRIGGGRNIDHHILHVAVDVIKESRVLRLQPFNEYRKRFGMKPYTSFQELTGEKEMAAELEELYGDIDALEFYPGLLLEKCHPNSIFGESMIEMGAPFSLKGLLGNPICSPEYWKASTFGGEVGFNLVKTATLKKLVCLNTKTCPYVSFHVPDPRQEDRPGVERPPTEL
The data set is described as follows: In vitro COX-1 inhibition assay (Cayman colorimetric COX inhibitor screening kit).

A further data set has as its target T2, human COX-2 (Homo sapiens, UniProt P35354).
T2 sequence (P35354 18-604): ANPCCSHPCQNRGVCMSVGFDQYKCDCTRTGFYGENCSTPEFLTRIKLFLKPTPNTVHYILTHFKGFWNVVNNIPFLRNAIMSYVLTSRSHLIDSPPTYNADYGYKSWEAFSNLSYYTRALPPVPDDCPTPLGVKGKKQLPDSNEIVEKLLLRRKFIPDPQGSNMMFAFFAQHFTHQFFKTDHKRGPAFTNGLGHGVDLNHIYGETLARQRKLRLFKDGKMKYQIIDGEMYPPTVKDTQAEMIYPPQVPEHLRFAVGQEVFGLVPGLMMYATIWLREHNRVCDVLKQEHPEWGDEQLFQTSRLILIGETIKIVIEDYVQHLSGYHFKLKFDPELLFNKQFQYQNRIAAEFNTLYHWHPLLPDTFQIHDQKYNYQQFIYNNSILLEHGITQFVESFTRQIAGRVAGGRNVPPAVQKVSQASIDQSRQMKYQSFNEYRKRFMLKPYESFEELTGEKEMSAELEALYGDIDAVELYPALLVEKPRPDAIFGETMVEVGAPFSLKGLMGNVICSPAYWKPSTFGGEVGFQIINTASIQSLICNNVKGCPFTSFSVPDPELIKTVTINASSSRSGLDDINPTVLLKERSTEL
The data set can be described thus: In vitro COX-2 inhibition assay (Cayman colorimetric COX inhibitor screening kit). To be noted: for SI (COX-2 selectivity index): COX-1 (IC50)/COX-2 (IC50); for IC50: COX-2 IC50, mean ± SEM, n = 3.

For data set [1], the system named is carrageenan-induced paw edema. The data set can be described thus: Carrageenan paw edema test (paw thickness, paw weight). The following applies: for Paw thickness difference: oral; for Paw thickness difference / Paw Weight Increase: mean ± SD, n = 6; for Percentage of inhibition of paw thickness: vs carrageenan group; for Paw Weight Increase: right vs left paw, after 5 h. A general note: Carrageenan injected into the paw causes an acute inflammation.
Procedure: The carrageenan paw edema test was conducted following established procedures as detailed (Supplementary Materials, page 53).
In-vivo anti-inflammatory activity
The carrageenan paw edema test was conducted following established procedures. In summary, seventy-two rats were randomly assigned to twelve groups, each comprising six rats.
These groups included normal controls, carrageenan controls (both receiving the vehicle; 1%
Acute inflammation was induced in the right hind paws of all rats one hour after oral administration of the respective compounds or vehicle. This was achieved by injecting a freshly prepared 0.1 mL carrageenan suspension (1% in normal saline) subplantarly into the right hind paw, except for the normal control group, which received a saline injection. Paw thickness was measured hourly (Ct) until the fifth hour (C5) post-carrageenan injection (C0). The hourly increase in paw thickness (paw thickness difference) was calculated by subtracting the initial measurement (C0) from the thickness at each hour (Ct), and the results were presented as the mean increase in paw thickness (mm). To evaluate anti-inflammatory effects, the percentage of inhibition for each standard and test compound was determined using the formula: percentage of inhibition (%) = [(Paw thickness difference of carrageenan group - Paw thickness difference of treated)/ Paw thickness difference of carrageenan group] × 100. […] The paws were then excised and weighed (both left and right). The percentage of weight increase between the left and right paws of each animal was calculated using the equation: Percentage of weight increase = [(Weight of the right paw - Weight of the left paw) / Weight of the left paw] ×100.

Procedure for human COX-2: (§1) The in vitro enzyme assays were performed at the Biochemistry Department, Cairo
(§2) General Hospital, Egypt. Cayman® colorimetric COX (ovine) inhibitor screening assay kit (Item
(§3) enzymes in presence of all newly compounds. Generally, this kit is dependent on the reductive
(§4) reaction of COX. A specific antibody binds to PGH2 produced by COX and is further quantified
(§5) by the ELISA technique as previously reported. After that, the selectivity index (SI) was calculated
as the following equation:
𝐒𝐞𝐥𝐞𝐜𝐭𝐢𝐯𝐢𝐭𝐲 𝐢𝐧𝐝𝐞𝐱 (𝐒𝐈) = 𝐈𝐂₅₀𝐨𝐟 𝐂𝐎𝐗 − 𝟏
Procedure for ovine COX-1: as §1, §2, §3, §4, §5
as the following equation:
𝐒𝐞𝐥𝐞𝐜𝐭𝐢𝐯𝐢𝐭𝐲 𝐢𝐧𝐝𝐞𝐱 (𝐒𝐈) = 𝐈𝐂₅₀𝐨𝐟 𝐂𝐎𝐗 − 𝟏

Turning to `O=C(O)COc1ccccc1C=NNC(=O)c1ccccc1` [Compound 5a, 2-(2-((2-Benzoylhydrazineylidene)methyl)phenoxy)acetic acid], the melting point (usually the temperature of the solid-liquid transition) was in the range of 209 to 211 °C. Besides, 10 ± 0.1 µM corresponded to half-maximal inhibition on ovine COX-1 (IC50). For the same molecule, on human COX-2, the “SI (COX-2 selectivity index)” value was 10.31 and 0.97 ± 0.06 µM corresponded to half-maximal inhibition (IC50).
In the case of `Cc1ccc(C(=O)NN=Cc2ccccc2OCC(=O)O)cc1` [Compound 5b, 2-(2-((2-(4-Methylbenzoyl)hydrazineylidene)methyl)phenoxy)acetic acid], the melting point lay in the range of 222 to 223 °C. The concentration for half-maximal inhibition (IC50) (usually the point on the concentration scale where inhibition reaches its midpoint) against ovine COX-1 came to 7.5 ± 0.2 µM. Besides, on human COX-2, the “SI (COX-2 selectivity index)” value was 20.27 and the IC50 was found to be 0.37 ± 0.06 µM.
On to `O=C(O)COc1ccccc1C=NNC(=O)c1ccc(Cl)cc1` [Compound 5c, 2-(2-((2-(4-Chlorobenzoyl)hydrazineylidene)methyl)phenoxy)acetic acid], for which the melting point is 241 to 243 °C. Also, on ovine COX-1, inhibition was half-maximal at 14.5 ± 0.2 µM (IC50). Moreover, at human COX-2, the “SI (COX-2 selectivity index)” value turned out to be 111.53 and the half-inhibitory concentration (IC50) came out at 0.13 ± 0.06 µM.
In the case of `O=C(O)COc1ccc(Br)cc1C=NNC(=O)c1ccccc1` [Compound 5d, 2-(2-((2-Benzoylhydrazineylidene)methyl)-4-bromophenoxy)acetic acid], the 50% inhibitory concentration (IC50) against ovine COX-1 is 9.03 ± 0.15 µM; at human COX-2 it was 0.08 ± 0.01 µM. In addition, the Paw thickness difference in data set [1] (1st h after carrageenan) is on record as 1.37 ± 0.13 mm; in data set [1] (2nd h after carrageenan), 2.76 ± 0.24 mm; in data set [1] (3rd h after carrageenan), 3.56 ± 0.33 mm; in data set [1] (4th h after carrageenan), 3.7 ± 0.32 mm; in data set [1] (5th h after carrageenan), 3.90 ± 0.41 mm. The “Percentage of inhibition of paw thickness” value is recorded as 30.57% in data set [1] (1st h); 16.19% in data set [1] (2nd h); 15.67% in data set [1] (3rd h); 26.75% in data set [1] (4th h); 26.51% in data set [1] (5th h). For the same molecule, the “Paw Weight Increase” value in data set [1] is recorded as 76.92 ± 3.89 ^abcd %. Moreover, on human COX-2, the “SI (COX-2 selectivity index)” value was 112.87.
Consider `Cc1ccc(C(=O)NN=Cc2cc(Br)ccc2OCC(=O)O)cc1` [Compound 5e, 2-(4-Bromo-2-((2-(4-methylbenzoyl)hydrazineylidene)methyl)phenoxy)acetic acid], for which the IC50 against ovine COX-1 amounted to 7 ± 0.2 µM; against human COX-2 it was 0.07 ± 0.01 µM. In addition, the Paw thickness difference in data set [1] (1st h after carrageenan) worked out at 1.57 ± 0.4 mm; in data set [1] (2nd h after carrageenan), 2.53 ± 0.48 mm; in data set [1] (3rd h after carrageenan), 3.43 ± 0.10 mm; in data set [1] (4th h after carrageenan), 3.55 ± 0.11 mm; in data set [1] (5th h after carrageenan) it was 3.68 ± 0.15 mm. Besides, the “Percentage of inhibition of paw thickness” value in data set [1] (1st h) was 20.35%; in data set [1] (2nd h), 23.28%; in data set [1] (3rd h) it was 18.71%; in data set [1] (4th h) it was 29.59%; in data set [1] (5th h), 30.72%. Besides, the “Paw Weight Increase” value in data set [1] is given as 47.55 ± 2.41 ^abcd %. For the same molecule, the “SI (COX-2 selectivity index)” value on human COX-2 was 100.00.
In turn, `O=C(O)COc1ccccc1C=NNC(=O)Cc1ccccc1` [Compound 7a, 2-(2-((2-(2-Phenylacetyl)hydrazineylidene)methyl)phenoxy)acetic acid] came in with a melting point of 214 to 215 °C. This molecule returned a concentration for half-maximal inhibition (IC50) against ovine COX-1 of 10 ± 0.2 µM. In addition, at human COX-2, the “SI (COX-2 selectivity index)” value was 76.92 and half-maximal inhibition (IC50) was put at 0.13 ± 0.06 µM.
In the same order, the values of `O=C(O)COc1ccccc1/C=N/NC(=O)CNc1ccccc1` [Compound 10a] are 221 to 222 °C, 9.5 ± 0.2 µM, 19.00 and 0.5 ± 0.1 µM.
The like results for `Cc1ccc(NCC(=O)NN=Cc2ccccc2OCC(=O)O)cc1` [Compound 10b, 2-(2-((2-(4-Tolylglycyl)hydrazineylidene)methyl)phenoxy)acetic acid] were, in that order, 236 to 238 °C, 4.97 ± 0.06 µM, 15.06 and 0.33 ± 0.06 µM.
In the case of `O=C(O)COc1ccccc1C=NNC(=O)CNc1ccc(Cl)cc1` [Compound 10c, 2-(2-((2-((4-Chlorophenyl)glycyl)hydrazineylidene)methyl)phenoxy)acetic acid], the IC50 came to 5.57 ± 0.12 µM at ovine COX-1 and 0.07 ± 0.01 µM against human COX-2. In addition, the Paw thickness difference was found to be 1.65 ± 0.22 mm in data set [1] (1st h after carrageenan); 2.64 ± 0.33 mm in data set [1] (2nd h after carrageenan); 3.11 ± 0.29 mm in data set [1] (3rd h after carrageenan); 3.81 ± 0.19 mm in data set [1] (4th h after carrageenan); 4.22 ± 0.28 mm in data set [1] (5th h after carrageenan). The “Percentage of inhibition of paw thickness” value in data set [1] (1st h) is given as 16.47%; in data set [1] (2nd h), 19.99%; in data set [1] (3rd h), 26.25%; in data set [1] (4th h), 24.47%; in data set [1] (5th h) it was 20.54%. In data set [1], the “Paw Weight Increase” value is 69.01 ± 4.61 ^abcd %. The “SI (COX-2 selectivity index)” value at human COX-2 is listed as 79.57.
As to `O=C(O)COc1ccc(Br)cc1/C=N/NC(=O)CNc1ccccc1` [Compound 10d], the IC50 against ovine COX-1 was 7 ± 0.2 µM; on human COX-2 it was 0.08 ± 0.01 µM. Also, the Paw thickness difference in data set [1] (1st h after carrageenan) is given as 1.55 ± 0.41 mm; in data set [1] (2nd h after carrageenan), 2.60 ± 0.21 mm; in data set [1] (3rd h after carrageenan) it was 2.93 ± 0.37 mm; in data set [1] (4th h after carrageenan), 3.44 ± 0.37 mm; in data set [1] (5th h after carrageenan), 3.73 ± 0.34 mm. The “Percentage of inhibition of paw thickness” value was 21.37% in data set [1] (1st h); 21.15% in data set [1] (2nd h); 30.56% in data set [1] (3rd h); 31.87% in data set [1] (4th h); 29.71% in data set [1] (5th h). For the same molecule, in data set [1], the “Paw Weight Increase” value was 60.8 ± 4.27 ^abcd %. Moreover, the “SI (COX-2 selectivity index)” value at human COX-2 is 87.50.
In the case of `Cc1ccc(NCC(=O)NN=Cc2cc(Br)ccc2OCC(=O)O)cc1` [Compound 10e, 2-(4-Bromo-2-((2-(p-tolylglycyl)hydrazineylidene)methyl)phenoxy)aceticacid], the IC50 at ovine COX-1 was found to be 4.07 ± 0.12 µM; on human COX-2 it was 0.06 ± 0.01 µM. The Paw thickness difference in data set [1] (1st h after carrageenan) is on record as 1.79 ± 0.39 mm; in data set [1] (2nd h after carrageenan), 3.00 ± 0.30 mm; in data set [1] (3rd h after carrageenan), 3.58 ± 0.17 mm; in data set [1] (4th h after carrageenan) it was 3.98 ± 0.26 mm; in data set [1] (5th h after carrageenan), 4.17 ± 0.24 mm. Moreover, the “Percentage of inhibition of paw thickness” value in data set [1] (1st h) is 9.38%; in data set [1] (2nd h), 9.01%; in data set [1] (3rd h), 15.28%; in data set [1] (4th h) it was 21.24%; in data set [1] (5th h) it was 21.42%. For the same molecule, the “Paw Weight Increase” value in data set [1] is recorded as 64.95 ± 6.79 ^abcd %. The “SI (COX-2 selectivity index)” value at human COX-2 turned out to be 67.83.
As to `O=C(O)COc1ccc(Br)cc1C=NNC(=O)CNc1ccc(Cl)cc1` [Compound 10f, 2-(4-Bromo-2-((2-((4 chlorophenyl)glycyl)hydrazineylidene)methyl)phenoxy) acetic acid], the IC50 against ovine COX-1 was 4.97 ± 0.06 µM; against human COX-2 it was 0.09 ± 0.01 µM. Also, the Paw thickness difference worked out at 1.77 ± 0.27 mm in data set [1] (1st h after carrageenan); 2.85 ± 0.46 mm in data set [1] (2nd h after carrageenan); 3.24 ± 0.46 mm in data set [1] (3rd h after carrageenan); 3.63 ± 0.48 mm in data set [1] (4th h after carrageenan); 3.78 ± 0.51 mm in data set [1] (5th h after carrageenan). The “Percentage of inhibition of paw thickness” value is 10.39% in data set [1] (1st h); 13.51% in data set [1] (2nd h); 23.17% in data set [1] (3rd h); 28.04% in data set [1] (4th h); 28.80% in data set [1] (5th h). Further, the “Paw Weight Increase” value in data set [1] is reported as 59.16 ± 2.72 ^abcd %. Moreover, the “SI (COX-2 selectivity index)” value at human COX-2 came to 55.22.
